PubChem BioAssay AID1648 (Sanford-Burnham Center for Chemical Genomics, 2009)
Active and inactive are the calls of the source. No rule for the calls is given here.

These molecules were tested against Serine/threonine-protein kinase mTOR (Homo sapiens) (UniProt P42345) (assay: mTOR FRB domain ligand binding – biophysical, NMR (AID 1648)). Settings: NMR binding to FRB domain, chemical shift.
Serine/threonine-protein kinase mTOR (Homo sapiens), sequence (P42345 2015-2114): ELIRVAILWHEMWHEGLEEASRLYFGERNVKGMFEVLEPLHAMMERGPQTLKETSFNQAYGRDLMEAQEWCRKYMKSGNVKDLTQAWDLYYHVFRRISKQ

Which Kd does the source give for `O=S1(=O)CCC(NC(=S)N2CCCCC2)C1` (stereo not given) here?
The Kd was > 4 mM (inactive).

With `Cc1noc(C)c1C(=O)N1CCC2(CC1)OCCO2` as the molecule, how does the Kd read?
The Kd was > 4 mM (inactive).

Which Kd does the source give for `C/C=C(/C)C(=O)O[C@H]1CC[C@@]2(C)[C@@H]3CC[C@H]4[C@]5(O)C[C@H](O)[C@@]6(O)[C@@H](CN7C[C@@H](C)CC[C@H]7[C@@]6(C)O)[C@]5(O)C[C@@]42OC13O` here?
Its Kd is > 4 mM (inactive).

How did the Kd turn out when `O=C(O)c1cc(O)c(O)c(O)c1` was run?
Its Kd is > 4 mM (inactive).

`Cn1c(CN)nc2ccccc21` was tested. Which Kd did it give?
Its Kd is > 4 mM (inactive).

`O=C1CSC2(CN3CCC2CC3)N1` (stereo not given) was tested. Which Kd did it give?
Its Kd is > 4 mM (inactive).

How did the Kd turn out when `Nc1ncnc(Nc2ccccc2C(F)(F)F)n1` was run?
Its Kd is > 4 mM (inactive).

Which Kd does the source give for `Fc1cccc(Cl)c1CN1CCCNCC1` here?
Its Kd is > 4 mM (inactive).

`NC(=O)Cc1nc(-c2ccc(F)cc2)cs1` was tested. Which Kd did it give?
The Kd was > 4 mM (inactive).

How did the Kd turn out when `COC(=O)NNc1ncnc(N)c1[N+](=O)[O-]` was run?
Its Kd is > 4 mM (inactive).

For `COc1c(-c2coc3cc4c(cc3c2=O)CC(OC(C)=O)C(C)(C)O4)ccc2c1C=CC(C)(C)O2` (stereo not given), which Kd is on record?
The Kd was > 4 mM (inactive).

`Nc1cc(=O)[nH]c(=S)n1-c1cccc(C(F)(F)F)c1` was tested. Which Kd did it give?
Its Kd is > 4 mM (inactive).

How did the Kd turn out when `CC1(C)CC(=O)c2sc(N)nc2C1` was run?
Its Kd is > 4 mM (inactive).

How did the Kd turn out when `Cc1cc(C)c2ccc[n+]([O-])c2c1O` was run?
Its Kd is > 4 mM (inactive).

How did the Kd turn out when `COc1ccc(NC(=O)CSc2nccc(=O)[nH]2)cc1` was run?
Its Kd is > 4 mM (inactive).

For `Cn1[nH]c2nc3[nH]n(C)c(=O)c3c(-c3ccccc3)c2c1=O`, which Kd is on record?
Its Kd is > 4 mM (inactive).

`C[n+]1cccc(C(=O)[O-])c1` was tested. Which Kd did it give?
Its Kd is > 4 mM (inactive).

Which Kd does the source give for `NC(=O)NCCCC(N)C(=O)O` (stereo not given) here?
Its Kd is > 4 mM (inactive).

Which Kd does the source give for `O=C(CSC1=NCCS1)N1CCc2ccccc21` here?
The Kd was > 4 mM (inactive).

How did the Kd turn out when `O=C1NC(=S)NC(=O)C1=Cc1ccncc1` was run?
The Kd was > 4 mM (inactive).

With `CC(=O)Nc1ccc(C(=O)NC2CCSC2=O)cc1` (stereo not given) as the molecule, how does the Kd read?
Its Kd is > 4 mM (inactive).

`Nc1cc(N)nc(SCc2cccnc2)n1` was tested. Which Kd did it give?
The Kd was > 4 mM (inactive).

With `CN1CCN(c2cc(=O)n(C)c(=O)[nH]2)CC1` as the molecule, how does the Kd read?
Its Kd is > 4 mM (inactive).

Which Kd does the source give for `Cc1cc(S(=O)(=O)N2CCOCC2)ccc1F` here?
The Kd was > 4 mM (inactive).

How did the Kd turn out when `CC(=O)NCCc1cc2ccc(C)c(C)c2[nH]c1=O` was run?
Its Kd is > 4 mM (inactive).

`O=C(/C=C/c1ccccc1)c1ccc(O[C@@H]2O[C@H](CO)[C@@H](O)[C@H](O)[C@H]2O)cc1O` was tested. Which Kd did it give?
Its Kd is > 4 mM (inactive).

With `Cn1nc(C(C)(C)C)cc1N` as the molecule, how does the Kd read?
Its Kd is > 4 mM (inactive).

With `Cc1noc(C)c1C(=O)Nc1cccnc1` as the molecule, how does the Kd read?
The Kd was > 4 mM (inactive).

With `CN(C)c1ccc(N2C(=O)CCC2=O)cc1` as the molecule, how does the Kd read?
The Kd was > 4 mM (inactive).

With `CC12CC[C@H](CC1=O)C2(C)C` as the molecule, how does the Kd read?
Its Kd is > 4 mM (inactive).

With `CSc1nnc2c(n1)OC=Nc1ccccc1-2` as the molecule, how does the Kd read?
The Kd was > 4 mM (inactive).

Which Kd does the source give for `Nc1ncnc2c1ncn2CCN1CCCCC1` here?
The Kd was > 4 mM (inactive).

`Nc1nc(-c2ccncc2)cs1` was tested. Which Kd did it give?
Its Kd is > 4 mM (inactive).

Which Kd does the source give for `Nc1nnc(SCc2ccc3c(c2)OCO3)s1` here?
The Kd was > 4 mM (inactive).

How did the Kd turn out when `Nc1cc(F)ccc1-n1ccnc1` was run?
Its Kd is > 4 mM (inactive).

With `CS(=O)(=O)N1CCC(C(=O)NC2CCCC2)CC1` as the molecule, how does the Kd read?
The Kd was > 4 mM (inactive).

With `NC(=O)c1sc2ccccc2c1Cl` as the molecule, how does the Kd read?
Its Kd is > 4 mM (inactive).

For `Cc1ccccc1NC(=O)CC1NCCNC1=O` (stereo not given), which Kd is on record?
The Kd was > 4 mM (inactive).

For `CN1C2C[C@H](OC(=O)[C@H](CO)c3ccccc3)C[C@H]1[C@@H](O)C2`, which Kd is on record?
The Kd was > 4 mM (inactive).

`NC(=O)CN1CC(c2ccccc2)CC1=O` (stereo not given) was tested. Which Kd did it give?
The Kd was > 4 mM (inactive).

For `Nc1cc(F)nc(F)n1`, which Kd is on record?
Its Kd is > 4 mM (inactive).

Which Kd does the source give for `O=c1[nH]c2ccccc2c(=O)n1CCCO` here?
The Kd was > 4 mM (inactive).

`C=C(C)[C@H]1COc2cc3oc(=O)ccc3cc2O1` was tested. Which Kd did it give?
The Kd was > 4 mM (inactive).

Which Kd does the source give for `CC(=O)NC(=S)Nc1ccccc1N1CCOCC1` here?
The Kd was > 4 mM (inactive).

With `Cc1nc2ccc(C(=O)O)cc2[nH]1` as the molecule, how does the Kd read?
The Kd was > 4 mM (inactive).

How did the Kd turn out when `O=c1ccc2cc(O[C@@H]3O[C@H](CO)[C@@H](O)[C@H](O)[C@H]3O)c(O)cc2o1` was run?
Its Kd is > 4 mM (inactive).

Which Kd does the source give for `COc1c(C(C)C)oc2cc3oc(=O)ccc3cc12` here?
The Kd was > 4 mM (inactive).

`CCOC(=O)c1c(C)nc2ccccn12` was tested. Which Kd did it give?
The Kd was > 4 mM (inactive).

For `CC(=O)NC(=S)Nc1cccc(C(=O)O)c1C`, which Kd is on record?
The Kd was > 4 mM (inactive).

Which Kd does the source give for `COc1ccccc1NC(C)=O` here?
The Kd was > 4 mM (inactive).

For `O=S1(=O)NC(=NCc2ccco2)c2ccccc21`, which Kd is on record?
Its Kd is > 4 mM (inactive).

For `NC(=O)CN=Cc1c(O)[nH]c2ccccc12`, which Kd is on record?
Its Kd is > 4 mM (inactive).

With `COCc1cc(=O)oc2cc(N)ccc12` as the molecule, how does the Kd read?
Its Kd is > 4 mM (inactive).

Which Kd does the source give for `COc1cccc(Oc2ccc(N)cc2)c1` here?
Its Kd is > 4 mM (inactive).

Which Kd does the source give for `O=C1c2ccncc2C(=O)N1CNc1ccccn1` here?
Its Kd is > 4 mM (inactive).

With `O=C(O)c1cc(O)c2c(c1)[C@@H]([C@H]1c3cc(C(=O)O)cc(O)c3C(=O)c3c(O[C@H]4O[C@H](CO)[C@@H](O)[C@H](O)[C@H]4O)cccc31)c1cccc(O[C@H]3O[C@H](CO)[C@@H](O)[C@H](O)[C@H]3O)c1C2=O` as the molecule, how does the Kd read?
The Kd was > 4 mM (inactive).

Which Kd does the source give for `OCc1ccc2occc2c1` here?
The Kd was > 4 mM (inactive).

With `COc1ccc(C2NC(C(=O)O)CS2)cc1` (stereo not given) as the molecule, how does the Kd read?
The Kd was > 4 mM (inactive).

How did the Kd turn out when `Cc1nc2sc3c(c2c(=N)n1N)CC(C)(C)OC3` was run?
The Kd was > 4 mM (inactive).

Which Kd does the source give for `c1ccc(C[N+]23CCN(CC2)CC3)cc1` here?
The Kd was > 4 mM (inactive).

Which Kd does the source give for `Cc1nnc(SCC(=O)Nc2ccccc2)[nH]c1=O` here?
The Kd was > 4 mM (inactive).

With `O=C1CC(=O)N(c2ccccc2F)C(=S)N1` as the molecule, how does the Kd read?
The Kd was > 4 mM (inactive).

For `Cc1n[nH]c(=O)c2ncn(C)c12`, which Kd is on record?
The Kd was > 4 mM (inactive).

With `Brc1cccc(-c2nnco2)c1` as the molecule, how does the Kd read?
Its Kd is > 4 mM (inactive).

For `O=C(CSc1cccc2cccnc12)N1CCCC1`, which Kd is on record?
Its Kd is > 4 mM (inactive).

With `OCc1ccc(N2CCOCC2)cc1` as the molecule, how does the Kd read?
The Kd was > 4 mM (inactive).

With `O=c1[nH]cc(NCc2ccco2)c(=O)[nH]1` as the molecule, how does the Kd read?
The Kd was > 4 mM (inactive).

Which Kd does the source give for `COc1ccc([C@H]2Oc3c(I)c(OC)cc(OC)c3C[C@@H]2O)cc1OC` here?
The Kd was > 4 mM (inactive).

`Cc1cc(C(=O)N2CCN(c3ncccn3)CC2)c(C)o1` was tested. Which Kd did it give?
Its Kd is > 4 mM (inactive).

For `O=C(O)CS(=O)(=O)c1ccccc1`, which Kd is on record?
Its Kd is > 4 mM (inactive).

Which Kd does the source give for `O=C(c1ccc2c(c1)OCO2)N1CCC2(CC1)OCCO2` here?
Its Kd is > 4 mM (inactive).

With `CC(C)=CCC[C@](C)(O)C1CC=C(C)CC1` (stereo not given in full) as the molecule, how does the Kd read?
Its Kd is > 4 mM (inactive).

Which Kd does the source give for `O=C(O)Cn1cc(C(F)(F)F)ccc1=O` here?
Its Kd is > 4 mM (inactive).

`CNc1nc(N)c(C(=O)C(C)(C)C)s1` was tested. Which Kd did it give?
The Kd was > 4 mM (inactive).

Which Kd does the source give for `C[C@]12CCC3C(CC[C@H]4C[C@@H](O)CC[C@]34C)C1CCC2=O` (stereo not given in full) here?
The Kd was > 4 mM (inactive).

Which Kd does the source give for `CC1(C)C(=O)C=C[C@@]2(C)C1C[C@@H](O)[C@]1(C)C2CC[C@@]2(C)[C@H](c3ccoc3)OC(=O)[C@H]3O[C@]321` (stereo not given in full) here?
Its Kd is > 4 mM (inactive).

Which Kd does the source give for `CS(=O)(=O)N1CCN(C(=O)c2ccccc2)CC1` here?
The Kd was > 4 mM (inactive).

`CNC(=O)N1CCN(C(=O)NC)CC1` was tested. Which Kd did it give?
The Kd was > 4 mM (inactive).

For `Cc1oc(-c2ccccc2)cc1C(=O)O`, which Kd is on record?
The Kd was > 4 mM (inactive).

For `NS(=O)(=O)c1ccc(F)cc1`, which Kd is on record?
Its Kd is > 4 mM (inactive).

Which Kd does the source give for `CC(=O)Nc1cc(S(=O)(=O)N(C)C)ccc1Cl` here?
The Kd was > 4 mM (inactive).

Which Kd does the source give for `Nc1cc(C(=O)N2CCCC2)cc(C(=O)N2CCCC2)c1` here?
Its Kd is > 4 mM (inactive).

`S=c1[nH]c2cccnc2[nH]1` was tested. Which Kd did it give?
Its Kd is > 4 mM (inactive).

With `CCc1c(C)[nH]c(=S)c(C(N)=O)c1C` as the molecule, how does the Kd read?
Its Kd is > 4 mM (inactive).

For `Cc1nnc(NCCO)[nH]c1=O`, which Kd is on record?
Its Kd is > 4 mM (inactive).
